In brackets after ≈: the same amount, converted by molar mass.
Experiments:
[1] = tested on: Staphylococcus aureus Novb. Res. (Novobiocin resistant); test: MIC by agar-dilution, in-vitro antibacterial test; type: cell-based; details: type Novb. Res. (Novobiocin resistant), 10^4 CFU/spot, 37° C., 24 hours
Procedure: (§1) The following results were obtained on a standard in-vitro test system. The activity is described in terms of the minimum inhibitory concentration (MIC) determined by the agar-dilution technique with an inoculum size of 10^4 CFU/spot.
(§2) Staphylococci were tested on agar, using an inoculum of 10^4 CFU/spot and an incubation temperature of 37° C. for 24 hours—standard test conditions for the expression of methicillin resistance.

[2] = tested on: Staphylococcus aureus MRQR (methicillin resistant quinoione resistant); test: MIC by agar-dilution, in-vitro antibacterial test; type: cell-based; details: type MRQR, 10^4 CFU/spot, 37° C., 24 hours
Procedure: as §1, §2

[3] = tested on: Coagulase Negative Staphylococci MR (methicillin resistant); test: MIC by agar-dilution, in-vitro antibacterial test; type: cell-based; details: type MR (methicillin resistant), 10^4 CFU/spot, 37° C., 24 hours
Procedure: as §1, §2

[4] = tested on: Coagulase Negative Staphylococci MS (methicillin sensitive); test: MIC by agar-dilution, in-vitro antibacterial test; type: cell-based; details: type MS (methicillin sensitive), 10^4 CFU/spot, 37° C., 24 hours
Procedure: as §1, §2

[5] = tested on: Staphylococcus aureus Oxford; test: MIC by agar-dilution, in-vitro antibacterial test; type: cell-based; details: type Oxford, 10^4 CFU/spot, 37° C., 24 hours
Procedure: as §1, §2

Enterococcus faecalis = test: MIC by agar-dilution, in-vitro antibacterial test; type: cell-based; details: agar with 5% defibrinated horse blood, 10^4 CFU/spot, 37° C., 5% carbon dioxide, 48 hours
Procedure: (§3) The following results were obtained on a standard in-vitro test system. The activity is described in terms of the minimum inhibitory concentration (MIC) determined by the agar-dilution technique with an inoculum size of 10^4 CFU/spot. Streptococci and enterococci were tested on agar supplemented with 5% defibrinated horse blood, an inoculum of 10^4 CFU/spot and an incubation temperature of 37° C. in an atmosphere of 5% carbon dioxide for 48 hours—blood is required for the growth of some of the test organisms.

[6] = tested on: Streptococcus pyogenes C203; test: MIC by agar-dilution, in-vitro antibacterial test; type: cell-based; details: agar with 5% defibrinated horse blood, 10^4 CFU/spot, 37° C., 5% carbon dioxide, 48 hours
Procedure: as §3

Bacillus subtilis = test: MIC by agar-dilution, in-vitro antibacterial test; type: cell-based; details: 10^4 CFU/spot
Text: as §1

Row | SMILES | melting point | further results
1 | CC(=O)NC[C@H]1CN(c2ccc(C(=O)c3ccc4ccc(C)cn34)cc2)C(=O)O1 [Example 2, N-([(5S)-N-(4-[6-methylindolizin-3-ylcarbonyl]phenyl)-2-oxooxazolidin-5-yl]methyl)acetamide] | 237 to 239 °C | 
2 | CC(=O)NC[C@H]1CN(c2ccc(C(=O)c3ccc4cnc(C)cn34)cc2)C(=O)O1 [Example 4, N-([(5S)-N-(4-[3-methylpyrrolo[1,2-a]pyrazin-6-ylcarbonyl]phenyl)-2-oxooxazolidin-5-yl]methyl)acetamide] | 248 to 250 °C | 
3 | CC(=O)NC[C@H]1CN(c2ccc(C(=O)c3cnc4ccccn34)cc2)C(=O)O1 [Example 5, N-([(5S)-N-(4-[imidazo[1,2-a]pyridin-3-ylcarbonyl]phenyl)-2-oxooxazolidin-5-yl]methyl)acetamide] | 218 to 220 °C | 
4 | CC(=O)NC[C@H]1CN(c2ccc(C(=O)c3cnc4ncccn34)cc2)C(=O)O1 [Example 6, N-([(5S)-N-(4-[imidazo[1,2-a]pyrimidin-3-ylcarbonyl]phenyl)-2-oxooxazolidin-5-yl]methyl)acetamide] | 257 to 260 °C | 
5 | CC(=O)NC[C@H]1CN(c2ccc(C(=O)c3cnc4nc(C)cc(C)n34)cc2)C(=O)O1 [Example 7, N-([(5S)-N-(4-[5,7-dimethylimidazo[1,2-a]pyrimidin-3-ylcarbonyl]phenyl)-2-oxooxazolidin-5-yl]methyl)acetamide] | 253 to 254 °C | 
6 | CC(=O)NC[C@H]1CN(c2ccc(C(=O)c3cnc4ccc(Br)cn34)cc2)C(=O)O1 [Example 8, N-([(5S)-N-(4-[6-bromoimidazo[1,2-a]pyridin-3-ylcarbonyl]phenyl)-2-oxooxazolidin-5-yl]methyl)acetamide] | 230 to 232 °C | 
7 | CC(=O)NC[C@H]1CN(c2ccc(C(=O)c3cnc4c5ccccc5ccn34)cc2)C(=O)O1 [Example 9, N-([(5S)-N-(4-[imidazo[2,1-a]isoquinol-3-ylcarbonyl]phenyl)-2-oxooxazolidin-5-yl]methyl)acetamide] | 239 to 240 °C | 
8 | CC(=O)NC[C@H]1CN(c2ccc(C(=O)c3cnc4sccn34)cc2)C(=O)O1 [Example 10, N-([(5S)-N-(4[imidazo[2,1-b]thiazol-5-ylcarbonyl]phenyl)-2-oxooxazolidin-5-yl]methyl)acetamide] |  | MIC [1]: 0.13 µg/mL (≈ 0.338 µM); MIC [2]: 0.5 µg/mL (≈ 1.3 µM); MIC [3]: 0.13 µg/mL (≈ 0.338 µM); MIC [4]: 0.06 µg/mL (≈ 0.156 µM); MIC [5]: 0.13 µg/mL (≈ 0.338 µM); MIC (Enterococcus faecalis): 0.25 µg/mL (≈ 0.65 µM); MIC [6]: 0.03 µg/mL (≈ 0.078 µM); MIC (Bacillus subtilis): 0.125 µg/mL (≈ 0.325 µM)
9 | CC(=O)NC[C@H]1CN(c2ccc(C(=O)c3cnc4c(Cl)cc(Cl)cn34)cc2)C(=O)O1 [Example 11, N-([(5S)-N-(4-[6,8-dichloroimidazo[1,2-a]pyridin-3-ylcarbonyl]phenyl)-2-oxooxazolidin-5-yl]methyl)acetamide] | 228 to 229 °C | 
10 | CC(=O)NC[C@H]1CN(c2ccc(C(=O)c3cc(C#N)c4ccccn34)cc2)C(=O)O1 [Example 12, N-([(5S)-N-(4-[1-cyanoindolizin-3-ylcarbonyl]phenyl)-2oxooxazolidin-5-yl]methyl)acetamide] | 255 to 257 °C | 
11 | CC(=O)NC[C@H]1CN(c2ccc(C(=O)c3cnc4cc(C)ccn34)cc2)C(=O)O1 [Example 13, N-([(5S)-N-(4-[7-methylimidazo[1,2-a]pyridin-3-ylcarbonyl]phenyl)-2-oxooxazolidin-5-yl]methyl)acetamide] | 254 to 256 °C | 
12 | CC(=O)NC[C@H]1CN(c2ccc(C(=O)c3cnc4ccc(Cl)cn34)cc2)C(=O)O1 [Example 14, N-([(5S)-N-(4-[6-chloroimidazo[1,2-a]pyridin-3-ylcarbonyl]phenyl)-2-oxooxazolidin-5-yl]methyl)acetamide] | 234 to 235 °C | 
13 | CC(=O)NC[C@H]1CN(c2ccc(C(=O)c3cnc4ccc([N+](=O)[O-])cn34)cc2)C(=O)O1 [Example 15, N-([(5S)-N-(4-[6-nitroimidazo[1,2-a]pyridin-3-ylcarbonyl]phenyl)-2-oxooxazolidin-5-yl]methyl)acetamide] | 223 to 225 °C | 
14 | CC(=O)NC[C@H]1CN(c2ccc(C(=O)c3cnc4c([N+](=O)[O-])cccn34)cc2)C(=O)O1 [Example 16, N-([(5S)-N-(4-[8-nitroimidazo[1,2-a]pyridin-3-ylcarbonyl]phenyl)-2-oxooxazolidin-5-yl]methyl)acetamide] | 229 to 230 °C | 
15 | CC(=O)NC[C@H]1CN(c2ccc(C(=O)c3cnc4c(Br)cc(C)cn34)cc2)C(=O)O1 [Example 19, N-([(5S)-N-(4-[8-bromo-6-methylimidazo[1,2-a]pyridin-3-ylcarbonyl]phenyl)2-oxooxazolidin-5-yl]methyl)acetamide] | 221 to 223 °C | 
16 | CC(=O)NC[C@H]1CN(c2ccc(C(=O)c3cnc4c(OCc5ccccc5)cccn34)cc2)C(=O)O1 [Example 20, N-([(5S)-N-(4-[8-benzyloxyimidazo[1,2-a]pyridin-3-ylcarbonyl]phenyl)-2-oxooxazolidin-5-yl]methyl)acetamide] | 193 to 195 °C | 
17 | CC(=O)NC[C@H]1CN(c2ccc(C(=O)c3cnc4ccccn34)c(F)c2)C(=O)O1 [Example 22, N-([(5S)-N-(4[imidazo[1,2-a]pyridin-3-ylcarbonyl]{3-fluorophenyl})-2-oxooxazolidin-5-yl]methyl)acetamide] | 196 to 198 °C | 
18 | COC(=O)c1cccn2c(C(=O)c3ccc(N4C[C@H](CNC(C)=O)OC4=O)cc3)cnc12 [Example 23, N-([(5S)-N-(4-[8-methoxycarbonylimidazo[1,2-a]pyridin-3-ylcarbonyl]phenyl)-2-oxooxazolidin-5-yl]methyl)acetamide] | 202 to 204 °C | 
19 | COC(=O)c1ccc2ncc(C(=O)c3ccc(N4C[C@H](CNC(C)=O)OC4=O)cc3)n2c1 [Example 24, N-([(5S)-N-(4-[6-methoxycarbonylimidazo[1,2-a]pyridin-3-ylcarbonyl]phenyl)-2-oxooxazolidin-5-yl]methyl)acetamide] | 231 to 233 °C | 
20 | CC(=O)NC[C@H]1CN(c2ccc(C(=O)c3cnc4cc(-c5ccccc5)ccn34)cc2)C(=O)O1 [Example 25, N-([(5S)-N-(4-[7-phenylimidazo[1,2-a]pyridin-3-ylcarbonyl]phenyl)-2-oxooxazolidin-5-yl]methyl)acetamide] | 256 to 258 °C | 
21 | CC(=O)NC[C@H]1CN(c2ccc(C(=O)c3cnc4c(O)cccn34)cc2)C(=O)O1 [Example 26, N-([(5S)-N-(4-[8-hydroxyimidazo[1,2-a]pyridin-3-ylcarbonyl]phenyl)-2-oxooxazolidin-5-yl]methyl)acetamide] | 253 to 255 °C (dec.) | 
22 | CC(=O)NC[C@H]1CN(c2ccc(C(=O)c3cnc4ccc(F)cn34)cc2)C(=O)O1 [Example 27, N-([(5S)-N-(4-[6-fluoroimidazo[1,2-a]pyridin-3-ylcarbonyl]phenyl)-2-oxooxazolidin-5-yl]methyl)acetamide] | 224 to 226 °C | 
23 | CC(=O)NC[C@H]1CN(c2ccc(C(=O)c3cnc4cnc(Br)cn34)cc2)C(=O)O1 [Example 43, N-([(5S)-N-(4-[6-bromoimidazo[1,2-a]pyrazin-3-ylcarbonyl]phenyl)-2-oxooxazolidin-5-yl]methyl)acetamide] | 216 to 220 °C | 
24 | CC(=O)NC[C@H]1CN(c2ccc(C(=O)c3cnc4ccc(Cl)nn34)cc2)C(=O)O1 [Example 44, N-([(5S)-N-(4-[6-chloroimidazo[1,2-b]pyridazin-3-ylcarbonyl]phenyl)-2-oxooxazolidin-5-yl]methyl)acetamide] | 194 to 196 °C | 
25 | CC(=O)NC[C@H]1CN(c2ccc(C(=O)c3cnc4cnccn34)cc2)C(=O)O1 [Example 45, N-([(5S)-N-(4-[imidazo[1,2-a]pyrazin-3-ylcarbonyl]phenyl)-2-oxooxazolidin-5-yl]methyl)acetamide] | 254 to 256 °C | 
26 | CC(=O)NC[C@H]1CN(c2ccc(C(=O)c3ccc[nH]3)cc2)C(=O)O1 [Example 47, N-([(5S)-N-(4-[pyrrol-2-ylcarbonyl]phenyl)-2-oxooxazolidin-5-yl]methyl)acetamide] | 202 to 205 °C | 
